The source of these data is patent publication US4250178A, “Amides derived from carboxyl-5 pyrimidines” (Delalande S.A., priority 1978, dated 1981).

Data set [1] in a line: acute toxicity in mice, intraperitoneal (Miller and Tainter). As to conditions: mouse, in vivo, ip, read-out: Acute toxicity (mice) LD 50. An excerpt:
The acute toxicity was studied in mice intraperitoneally and the lethal doses estimated according to the method described by Miller and Tainter in Proc. Soc. Exper.

Data set [2] relates to apomorphine straightening. In words: test of antagonism to apomorphine straightening in mice, intraperitoneal (Gouret). The class given is in vivo. The note with it: Mus musculus, ip, read-out: Apomorphine straightening ED 50.

Structures can show the parent of a compound that is named as a salt.

With `COc1nc(N)ncc1C(=O)NC1CCN(Cc2ccccc2)CC1` [77.0208], the LD50 in data set [1] was found to be 500 mg/kg. Moreover, the ED50 in data set [2] was 3.5 mg/kg.

In the case of `CCN(CC)CCNC(=O)c1cnc(N(C)C)nc1OC` [77.1075], the LD50 in data set [1] was 200 mg/kg. The ED50 in data set [2] worked out at 16 mg/kg.

`CCN(CC)CCNC(=O)c1cnc(C)nc1OC` [77.0766]: the LD50 in data set [1] is 300 mg/kg. Further, the ED50 in data set [2] was 12 mg/kg.

With `CCN1CCCC1CNC(=O)c1cncnc1OC` (stereo not shown) [77.0807], the LD50 in data set [1] worked out at 300 mg/kg. Further, the ED50 in data set [2] was 18.5 mg/kg.

`CCCc1ncc(C(=O)NCC2CCCN2CC)c(OC)n1` (stereo not shown) [compound 780700]: the LD50 in data set [1] was 200 mg/kg. Moreover, in data set [2], the ED50 was found to be 17 mg/kg.

Turning to `COc1ncc(C(=O)NC2CCN(Cc3ccccc3)CC2)c(OC)n1` [77.1244], in data set [1], the LD50 turned out to be 180 mg/kg. Moreover, in data set [2], the ED50 was determined as 10 mg/kg.

For the compound `CCOc1nc(C)ncc1C(=O)NCCN(CC)Cc1ccc(F)cc1` [compound 780887], the LD50 in data set [1] came to 140 mg/kg. In addition, the ED50 in data set [2] came out at 1 mg/kg.

As to `CCCN1CCCC1CNC(=O)c1cnc(C)nc1OC` (stereo not shown) [compound 780552], the LD50 in data set [1] worked out at 140 mg/kg. The ED50 in data set [2] was 12.5 mg/kg.

Consider `COc1nc(N)ncc1C(=O)NC1CCN(C2CCCCC2)C1` (stereo not shown) [77.1006], for which, in data set [1], the LD50 came to 175 mg/kg. Besides, the ED50 in data set [2] is 3 mg/kg.

`COc1nc(C)ncc1C(=O)NCC1CCCN1Cc1ccc(F)cc1` (stereo not shown) [compound 780505]: the LD50 in data set [1] was determined as 155 mg/kg. For the same compound, the ED50 in data set [2] worked out at 15 mg/kg.

As for `CNc1ncc(C(=O)NC2CCN(Cc3ccccc3)CC2)c(OC)n1` [compound 771261], in data set [1], the LD50 came out at 70 mg/kg. The ED50 in data set [2] turned out to be 2.4 mg/kg.

`CCOc1nc(CC)ncc1C(=O)NCC1CCCN1C` (stereo not shown) [compound 781021, 4-ethoxy 2-ethyl 5-(1-methylpyrrolidin-2-yl)methylamino carbonyl pyrimidine, fumarate]: the LD50 in data set [1] was 115 mg/kg. In data set [2], the ED50 was 10.5 mg/kg.

With `CC(C)Oc1nc(N)ncc1C(=O)NC1CCN(Cc2ccccc2)CC1` [77.0872], in data set [1], the LD50 came out at 115 mg/kg. In addition, the ED50 in data set [2] worked out at 11 mg/kg.

As for `COc1nc(N)ncc1C(=O)N1CC1` [77.1017], in data set [1], the LD50 was found to be 300 mg/kg. Moreover, the ED50 in data set [2] came out at 15 mg/kg.

With `CCCN1CCCC1CNC(=O)c1cnc(N)nc1OC` (stereo not shown) [compound 771120], the LD50 in data set [1] was determined as 180 mg/kg. Also, the ED50 in data set [2] was 3.4 mg/kg.

In the case of `CCN1CCCC1CNC(=O)c1cnc(N)nc1OC(C)C` (stereo not shown) [77.0871], the LD50 in data set [1] amounted to 170 mg/kg. The ED50 in data set [2] was 30 mg/kg.

Consider `CCN1CCCC1CNC(=O)c1cnc(C)nc1OC` (stereo not shown) [77.0805], for which, in data set [1], the LD50 stood at 200 mg/kg. The ED50 in data set [2] came to 7 mg/kg.

Consider `CCCCN1CCCC1CNC(=O)c1cnc(C)nc1OC` (stereo not shown) [compound 780457], for which, in data set [1], the LD50 stood at 160 mg/kg. Besides, in data set [2], the ED50 was 17 mg/kg.

Regarding `CCN1CCCC1CNC(=O)c1cnc(N(C)C)nc1OC` (stereo not shown) [77.1057], the LD50 in data set [1] was 130 mg/kg. Moreover, the ED50 in data set [2] was determined as 1.3 mg/kg.

As to `CCOc1nc(N)ncc1C(=O)NCCN(CC)CC` [77.0508], the LD50 in data set [1] was 300 mg/kg. In data set [2], the ED50 amounted to 30 mg/kg.
